Settings: [M-H]-; instrument: DT; single field, calibrated with Agilent tune mix (Agilent)

Row | Compound | collision cross section (N2)
1 | CCCC[C@H](N)C(=O)O [L-Norleucine] | 129.02 Å²
2 | C[C@]12CC[C@H]3[C@@H](CCC4=CC(=O)CC[C@@]43C)[C@@H]1CC[C@@H]2O [Testosterone] | 175.64 Å²
3 | CC(=O)[C@H]1CC[C@H]2[C@@H]3CC=C4C[C@@H](O)CC[C@]4(C)[C@H]3CC[C@]12C [Pregnenolone] | 182.86 Å²
4 | Cc1ncc(CO)c(CO)c1O [Pyridoxine] | 130.75 Å²
5 | C[N+](C)(C)CCOP(=O)([O-])OP(=O)(O)OC[C@H]1O[C@@H](n2ccc(N)nc2=O)[C@H](O)[C@@H]1O [Cytidine 5'-diphosphocholine] | 200.64 Å²

Second part, the molecule after the results:

Row | collision cross section (N2) | Compound
6 | 171.96 Å² | OC[C@H]1O[C@H](OC[C@H]2OC(O)[C@H](O)[C@@H](O)[C@@H]2O)[C@H](O)[C@@H](O)[C@@H]1O (stereo not given in full) [Isomaltose]
7 | 151.22 Å² | Cc1cn([C@H]2C[C@H](O)[C@@H](CO)O2)c(=O)[nH]c1=O [Thymidine]

Settings: [M+HCOO]-; instrument: DT; single field, calibrated with Agilent tune mix (Agilent)

Row | collision cross section (N2) | Compound
8 | 250.4 Å² | CCCCCCCCCCCCC=CC[C@@H](O)[C@H](CO)NC(=O)CCCCCCCCCCCCCCC [Cer(34:1)]
9 | 257.6 Å² | CCCCCCCCCCCCC=CC[C@@H](O)[C@H](CO)NC(=O)CCCCCCCCCCCCCCCCC [Cer(36:1)]
10 | 251.8 Å² | CCCCCCCCCCCCCCCC(=O)N[C@@H](CO)[C@H](O)CCCCCCCCCCCCCCC [Cer(34:0)]
11 | 272 Å² | CCCCCCCCCCCCCCCCCCCCCC(=O)N[C@@H](CO)[C@H](O)CCCCCCCCCCCCCCC [Cer(40:0)]
12 | 237.7 Å² | CCCCCCCCCCCCCCCCC(=O)OC[C@@H](O)COP(=O)([O-])OCC[N+](C)(C)C [LPC(17:0)]

Same assay, conditions: [M+H]+; instrument: DT; single field, calibrated with Agilent tune mix (Agilent)

Row | Compound | collision cross section (N2)
13 | CCCCCCCC/C=C\CCCCCCCC(=O)OC[C@@H](O)COP(=O)(O)OC[C@H](N)C(=O)O [LPS(18:1)] | 224.2 Å²
14 | CCCCCCCCCCCCCCCCCCCC(=O)O[C@H](COC(=O)CCCCCCCCCCC)COP(=O)(O)OCCN [PE(32:0)] | 271.4 Å²
15 | CCCCCCCCCCCCC=CC[C@@H](O)[C@H](CO)NC(=O)CCCCCCCCCCCCCCCCC [Cer(36:1)] | 261.6 Å²
16 | CCCCCC/C=C\CCCCCCCCCCCC(=O)O[C@H](COC(=O)CCCCCCCCCCCCCCCCC)COP(=O)([O-])OCC[N+](C)(C)C [PC(38:1)] | 298.8 Å²
17 | CCCCCCCCCCCCCCCCCCCCCC(=O)OC[C@H](COP(=O)(O)OCCN)OC(=O)CCCCCCCCCCC [PE(34:0)] | 277.5 Å²

The next lines start with the values.

Row | collision cross section (N2) | Compound
18 | 225 Å² | CCCCCCCCCCCCCCC(=O)OC[C@@H](O)COP(=O)([O-])OCC[N+](C)(C)C [LPC(15:0)]
19 | 284.8 Å² | CCCCCCCCCCCCC=CC[C@@H](O)[C@H](CO)NC(=O)CCCCCCCCCCCCCCCCCCCCCCCCC [Cer(44:1)]
20 | 253.6 Å² | CCCCCCCCCCCCC=CC[C@@H](O)[C@H](CO)NC(=O)CCCCCCCCCCCCCCC [Cer(34:1)]
21 | 233.9 Å² | CCCCC/C=C\C/C=C\CCCCCCCCCC(=O)OC[C@@H](O)COP(=O)([O-])OCC[N+](C)(C)C [LPC(20:2)]
22 | 273.5 Å² | CCCCCCCCCCCCC=CC[C@@H](O)[C@H](CO)NC(=O)CC=CCCCCCCCCCCCCCCCCCCC [Cer(41:2)]
23 | 274.7 Å² | CCCCCCCCCCCCCCCCCCCCCC(=O)N[C@@H](CO)[C@H](O)CCCCCCCCCCCCCCC [Cer(40:0)]
24 | 289.2 Å² | CCCCCCCCCC/C=C\CCCCCCCCCC(=O)O[C@H](COC(=O)CCCCCCCCCCCC)COP(=O)([O-])OCC[N+](C)(C)C [PC(35:1)]

Same assay, conditions: [M+NH4]+; instrument: DT; single field, calibrated with Agilent tune mix (Agilent)

Row | Compound | collision cross section (N2)
25 | CCCCC/C=C\C/C=C\CCCCCCCC(=O)OC[C@H](COC(=O)CCCCCCCCC/C=C\CCCCCCCCCC)OC(=O)CCCCCCCCC/C=C\CCCCCCCCCC [TG(62:4)] | 345.8 Å²
26 | CC/C=C\C/C=C\C/C=C\CCCCCCCC(=O)OC[C@H](COC(=O)CCCCCCCCCCC/C=C\C/C=C\CCCCC)OC(=O)CCCCCCCCC/C=C\CCCCCCCCCC [TG(62:6)] | 344.1 Å²

The next lines start with the values.

Row | collision cross section (N2) | Compound
27 | 280.3 Å² | CC/C=C\C/C=C\C/C=C\C/C=C\C/C=C\C/C=C\CCC(=O)O[C@@H](CO)COC(=O)CCCCCCCCCCCCCCCCCCC [DG(42:6)]
28 | 338.1 Å² | CC/C=C\C/C=C\C/C=C\C/C=C\C/C=C\C/C=C\CCC(=O)OC[C@@H](COC(=O)CCCCCCC/C=C\CCCCCCCCC)OC(=O)CCCCCCC/C=C\CCCCCCCCC [TG(60:8)]
29 | 331.7 Å² | CC/C=C\C/C=C\C/C=C\C/C=C\C/C=C\CCCCCC(=O)OC[C@@H](COC(=O)CCCC/C=C\C/C=C\C/C=C\C/C=C\CC)OC(=O)CCCCCC/C=C\C/C=C\C/C=C\CCCCC [TG(60:12)]
30 | 335.7 Å² | CC/C=C\C/C=C\C/C=C\C/C=C\C/C=C\C/C=C\CCC(=O)OC[C@@H](COC(=O)CCCC/C=C\C/C=C\C/C=C\C/C=C\CC)OC(=O)CCCCCCCC/C=C\C/C=C\C/C=C\CCCCC [TG(62:13)]
31 | 277.7 Å² | CCCC/C=C\CCCCCCCC(=O)OC[C@H](COP(=O)(O)O)OC(=O)CCCCCCCCCCCCCCCCCCCCC [PA(36:1)]

Same assay, conditions: [M+Na]+; instrument: DT; single field, calibrated with Agilent tune mix (Agilent)

Row | Compound | collision cross section (N2)
32 | CCCCCCCC/C=C\CCCCCCCC(=O)OC[C@@H](O)COP(=O)(O)OC[C@H](N)C(=O)O [LPS(18:1)] | 227 Å²
33 | CCCCCCCCCCCCC=CC[C@@H](O)[C@H](CO)NC(=O)CCCCCCCCCCCCCCCCC [Cer(36:1)] | 268.6 Å²

Continued, values first:

Row | collision cross section (N2) | Compound
34 | 285 Å² | CCCCCCCCCCCCC=CC[C@@H](O)[C@H](CO)NC(=O)CCCCCCCCCCCCCCCCCCCCCCCCC [Cer(44:1)]
35 | 273.8 Å² | CCCCCCCCCCCCC=CC[C@@H](O)[C@H](CO)NC(=O)CC=CCCCCCCCCCCCCCCCCCCC [Cer(41:2)]
36 | 275.6 Å² | CCCC/C=C\CCCCCCCC(=O)OC[C@H](COP(=O)(O)O)OC(=O)CCCCCCCCCCCCCCCCCCCCC [PA(36:1)]

Same assay, conditions: [M-H]-; instrument: DT; single field, calibrated with Agilent tune mix (Agilent)

Row | Compound | collision cross section (N2)
37 | CCCCCCCC/C=C\CCCCCCCC(=O)OC[C@@H](O)COP(=O)(O)OC[C@H](N)C(=O)O [LPS(18:1)] | 220.5 Å²
38 | CCCCCCCC/C=C\CCCCCCCCCC(=O)OC[C@@H](O)COP(=O)(O)OCCN [LPE(20:1)] | 218.4 Å²
39 | CCCCCCCCCCCCC=CC[C@@H](O)[C@H](CO)NC(=O)CCCCCCCCCCCCCCCCC [Cer(36:1)] | 248.6 Å²
40 | CCCCCCCC/C=C\CCCCCCCCCC(=O)O[C@H](COC(=O)CCCCCCCCCCC)COP(=O)(O)O [PA(32:1)] | 249 Å²

Now from value to molecule:

Row | collision cross section (N2) | Compound
41 | 299.2 Å² | CCCCC/C=C\C/C=C\CCCCCCCC(=O)OC[C@H](COP(=O)(O)O[C@H]1C(O)C(O)C(O)[C@@H](O)C1O)OC(=O)CCCCCCCCC/C=C\CCCCCCCCCC (stereo not given in full) [PI(40:3)]
42 | 234.2 Å² | CCCCCCCCCC/C=C\CCCCCCCCCC(=O)OC[C@@H](O)COP(=O)(O)OC[C@H](N)C(=O)O [LPS(22:1)]
43 | 220.1 Å² | CCCCCCCCCCCCCCCCC(=O)OC[C@@H](O)COP(=O)(O)OC[C@H](N)C(=O)O [LPS(17:0)]
44 | 261.6 Å² | CCCC/C=C\CCCCCCCC(=O)OC[C@H](COP(=O)(O)O)OC(=O)CCCCCCCCCCCCCCCCCCCCC [PA(36:1)]
45 | 262.1 Å² | CCCCCCCCCCCCCCCCCCCCCC(=O)N[C@@H](CO)[C@H](O)CCCCCCCCCCCCCCC [Cer(40:0)]

Reference: the C3SDB collision cross section collection
